The source of these data is PubChem BioAssay AID720622 (The Scripps Research Institute Molecular Screening Center, 2013).

The experiment is described as follows: whole-trypanosome antiproliferative activity – absorbance, counter-screen for T. brucei MetRS inhibitor project, late-stage follow-up (AID 720622). Conditions: T. brucei bloodstream form 427 growth, AlamarBlue fluorescence, 48 h.

Usually IC50 stands for the midpoint of a concentration-inhibition curve. Low readings indicate inhibition by little substance, high ones a need for much substance. In turn, `O=C(N/C(=C\c1cccnc1)c1nc2ccccc2[nH]1)c1cccc(Br)c1` registered an IC50 (run 1) of more than 10 µM. Same read-out and setting: then `O=C(Cn1cnc2ccccc21)Nc1cccc([N+](=O)[O-])c1`, with more than 10 µM. Under “run 1”, `O=C(NCCc1nc2ccccc2[nH]1)c1ccc(Cl)c([N+](=O)[O-])c1` came in with an IC50 of 4.97 µM. With `O=C(NCc1nc2ccccc2[nH]1)C1=C[C@H](c2ccc(Br)cc2)C[C@H](OCc2ccc(CO)cc2)O1`, the IC50 (run 1) turned out to be 9.73 µM. On the same count and under the same terms, then `Brc1cnc2nc(SCc3nc4ccccc4[nH]3)[nH]c2c1`, with more than 10 µM.

In the case of `O=C(Nc1ccc(F)c(Cl)c1)C1CC(=O)n2c(nc3ccccc32)N1` (configuration not stated), the IC50 (run 1) is more than 10 µM.

Molecule `O=C(NCc1nc2ccccc2[nH]1)C1=C[C@H](c2ccc(Br)cc2)C[C@H](OCCCCO)O1` registered a half-maximal inhibitory concentration (IC50) (run 1) of more than 10 µM.

As for `O=C(NCc1nc2ccccc2[nH]1)C1=C[C@H](c2ccc3c(c2)OCO3)C[C@H](OCCCCO)O1`, the half-maximal inhibitory concentration (IC50) (run 1) is more than 10 µM. Molecule `CCCCCCCCCC1NC(C(=O)O)Cc2c1[nH]c1ccccc21` (configuration not stated) returned an IC50 (run 1) of more than 10 µM. On the same count and under the same terms, then `CN1CC(=O)N2C(c3cccc([N+](=O)[O-])c3)c3[nH]c4ccccc4c3C[C@H]2C1=O` (some centres not stated), with more than 10 µM; and `CC(C)OCCCN1CC(=O)N2C(c3cccc([N+](=O)[O-])c3)c3[nH]c4ccccc4c3C[C@H]2C1=O` (some centres not stated), with more than 10 µM; and `O=C(CC(=O)Nc1cccc(Cl)c1)NN=Cc1ccccc1`, with more than 10 µM. The same measure, in the same setting: then `O=C1[C@@H]2Cc3c([nH]c4ccccc34)C(c3cccc([N+](=O)[O-])c3)N2C(=O)CN1CCCO` (some centres not stated), with more than 10 µM. Regarding `O=C(NCc1nc2ccccc2[nH]1)C1=C[C@@H](c2ccccc2)C[C@@H](OCc2ccc(CO)cc2)O1`, the IC50 (run 1) was more than 10 µM. Regarding `CC(C)(C)[C@@H]1C=C(C(=O)NCc2nc3ccccc3[nH]2)O[C@H](OCc2ccc(CO)cc2)C1`, where the note is “run 1”, the 50% inhibitory concentration (IC50) was more than 10 µM. Under “run 1”, `O=C(NNC(=O)c1cc(-c2ccc(Cl)c(Cl)c2)nc2ccccc12)Nc1ccccc1` showed a half-inhibitory concentration (IC50) of 5.24 µM. For the setting “run 1”, `CC(=O)c1c[nH]c(C(=O)NCc2cccc(C(F)(F)F)c2)c1` showed an IC50 of more than 10 µM. The same measure, in the same setting: to `O=C(NCc1nc2ccccc2[nH]1)C1=C[C@@H](c2ccc(Br)cc2)C[C@@H](OCc2ccc(CO)cc2)O1` belongs 4.38 µM; to `Clc1ccc(-c2nnc(SCc3nc4ccccc4[nH]3)o2)c(Cl)c1`, more than 10 µM; to `COc1ccc(OCC(O)CNC(=O)Nc2ccc(Cl)cc2)cc1` (configuration not stated), more than 10 µM. On the same count and under the same terms, then `O=C(NCc1nc2ccccc2[nH]1)C1=C[C@@H](C2CC2)C[C@@H](OCc2ccc(CO)cc2)O1`, with more than 10 µM. Turning to `CN(Cc1cc(Cl)cc(Cl)c1)[C@H]1C[C@H]2c3[nH]c4ccccc4c3CCN2C(=O)[C@H]1CO`, the half-inhibitory concentration (IC50) (run 1) worked out at 1.97 µM and the IC50 (run 2) is 2.62 µM. Consider `O=C(NCc1nc2ccccc2[nH]1)C1=C[C@@H](c2ccc(Br)cc2)C[C@@H](OCCCCO)O1`, for which the 50% inhibitory concentration (IC50) (run 1) came out at 6.6 µM.

`CCO[C@@H]1OC(C(=O)NCc2nc3ccccc3[nH]2)=C[C@H](c2ccc(Br)cc2)[C@H]1CCCO`: the concentration for half-maximal inhibition (IC50) (run 1) was more than 10 µM. Regarding `O=C(CCC(=O)Nc1cccc([N+](=O)[O-])c1)NN=Cc1cccs1`, where the note is “run 1”, the IC50 is more than 10 µM.

For the molecule `O=C(CC=NOCc1ccc([N+](=O)[O-])cc1)Nc1ccc(Cl)cc1`, under “run 1”, the 50% inhibitory concentration (IC50) was more than 10 µM.

`O=C(NCc1nc2ccccc2[nH]1)C1=C[C@@H](c2ccc3c(c2)OCO3)C[C@@H](OCCCCO)O1` yielded an IC50 (run 1) of more than 10 µM. Turning to `COc1ccccc1-n1c(SCC(=O)Nc2ccc(Cl)cc2)nc(O)c(Cc2ccccc2)c1=O`, the concentration for half-maximal inhibition (IC50) (run 1) is more than 10 µM. Still for that read-out and setting: then `O=C(NCc1nc2ccccc2[nH]1)C1=C[C@H](C2CC2)C[C@H](OCc2ccc(CO)cc2)O1`, with more than 10 µM. Still for that read-out and setting: then `O=C(NCc1nc2ccccc2[nH]1)C1=C[C@@H](c2csc3ccccc23)C[C@@H](OCCCCO)O1`, with more than 10 µM; and `COc1cccc(NC(=O)CSc2nnc3c(n2)[nH]c2ccc(C)cc23)c1`, with more than 10 µM. Still for that read-out and setting: then `CC(=O)c1ccc(N2CCN(C(=O)CCCn3c(=O)[nH]c4ccc(Br)cc4c3=O)CC2)cc1`, with more than 10 µM; and `COc1ccc(CNC(=O)CSc2nnc3c(n2)[nH]c2ccc(F)cc23)cc1`, with more than 10 µM; and `CCOC(=O)N1CCC(Nc2c(Nc3ccc(F)cc3)c(=O)c2=O)CC1`, with 8.72 µM. In the case of `Cc1[nH]c2ccc(Br)cc2c(=O)c1CN1CCCCCC1`, the half-maximal inhibitory concentration (IC50) (run 1) was more than 10 µM. The molecule `O=C(NCc1nc2ccccc2[nH]1)C1=C[C@H](c2csc3ccccc23)C[C@H](OCCCCO)O1` showed a half-inhibitory concentration (IC50) (run 1) of 3.96 µM. Still for that read-out and setting: to `Clc1ccc(OCCSCc2nc3ccccc3[nH]2)cc1` belongs more than 10 µM; to `Cc1ccc(NC(=O)CN(C)C(=O)CCSc2ccc(F)cc2)cc1`, more than 10 µM; to `COc1ccccc1NS(=O)(=O)c1cccc(NC(=O)Nc2ccccc2)c1`, 6.06 µM. On the same count and under the same terms, to `O=C(C[C@H]1C(=O)N(Cc2ccccc2)C[C@@H]1c1ccc(Br)cc1)Nc1ccc(Br)cc1` belongs 4.03 µM. On the same count and under the same terms, then `O=C(CC=NOCc1ccc([N+](=O)[O-])cc1)Nc1ccc(Br)cc1`, with more than 10 µM; and `O=C(NCc1nc2ccccc2[nH]1)C1=C[C@H](c2ccccc2)C[C@H](OCc2ccc(CO)cc2)O1`, with more than 10 µM. Where the note is “run 1”, `Oc1c(Cl)cc(Cl)cc1CNc1nc2ccccc2[nH]1` returned a concentration for half-maximal inhibition (IC50) of more than 10 µM.

`CCO[C@H]1OC(C(=O)NCc2nc3ccccc3[nH]2)=C[C@@H](c2ccc(Br)cc2)[C@@H]1CCCO`: for the setting “run 1”, the IC50 was more than 10 µM. `CC(CC(=O)Nc1cccc(Br)c1)=NNC(=O)c1ccc(O)cc1O` displayed a 50% inhibitory concentration (IC50) (run 1) of more than 10 µM. The same measure, in the same setting: to `C[C@H](O)[C@@H]1C(=O)N2CCc3c([nH]c4ccccc34)[C@@H]2C[C@@H]1N(C)Cc1ccc2c(c1)OCO2` belongs more than 10 µM.

For the molecule `O=C(Cn1cc(C(=O)C(=O)N2CCOCC2)c2ccccc21)Nc1cccc(C(F)(F)F)c1`, the IC50 by setting is: (run 1) 3.53 µM; (run 2) 1.8 µM.

Take `O=C1CC(N(CCc2ccccc2)C(=S)Nc2ccccc2)C(=O)N1c1ccc(Br)cc1` (configuration not stated): the half-inhibitory concentration (IC50) is 1.95 µM (run 1) and 2.74 µM (run 2).

For the setting “run 1”, `CC(C)(C)[C@H]1C=C(C(=O)NCc2nc3ccccc3[nH]2)O[C@@H](OCc2ccc(CO)cc2)C1` yielded a 50% inhibitory concentration (IC50) of more than 10 µM. The same measure, in the same setting: then `O=C(NNC(=O)c1ccc(-n2cncn2)c([N+](=O)[O-])c1)c1ccc(Cl)cc1`, with more than 10 µM; and `COc1ccc2[nH]c3nc(SCC(=O)Nc4ccc5c(c4)OCO5)nnc3c2c1`, with more than 10 µM; and `O=C1CC(SCc2nc3ccccc3[nH]2)C(=O)N1c1cccc(Cl)c1` (configuration not stated), with more than 10 µM. On the same count and under the same terms, to `O=C(CN1CCSC1=NCc1ccccc1)c1ccc(Cl)c(Cl)c1` belongs more than 10 µM; to `CN(CC(=O)Nc1ccc(Cl)cc1)C(=O)c1ccc(-n2cncn2)c([N+](=O)[O-])c1`, more than 10 µM.
